Assay results: patent publication US11247990B1, “Bicyclic fused pyridine compounds as inhibitors of TAM kinases” (ARRAY BIOPHARMA INC., priority 2017, dated 2022)
Structures can show the parent of a compound that is named as a salt.

Columns and labels:
[1] = biological target: GST-tagged recombinant human TYRO3 kinase domain (Homo sapiens (Human), UniProt Q06418); assay: TYRO3 Enzyme Assay (LanthaScreen Eu Kinase Binding, TR-FRET); conditions: averaged IC50
Protocol: (§1) Compounds of Formula I were screened for their ability to inhibit TYRO3 kinase using Invitrogen's LanthaScreen™ Eu Kinase Binding technology. […] After a 60-minute incubation at 22° C., the reaction was measured using a PerkinElmer EnVision multimode plate reader via TR-FRET dual wavelength detection, and the percent of control (POC) calculated using a ratiometric emission factor. […] The POC values were fit to a 4 parameter logistic curve and the IC50 value is point where the curve crosses 50 POC.

[2] = biological target: His-tagged recombinant human MER cytoplasmic domain (Homo sapiens (Human), UniProt Q12866); assay: MER Enzyme Assay (LanthaScreen Eu Kinase Binding, TR-FRET); conditions: averaged IC50
His-tagged recombinant human MER cytoplasmic domain, sequence (Q12866 527-999): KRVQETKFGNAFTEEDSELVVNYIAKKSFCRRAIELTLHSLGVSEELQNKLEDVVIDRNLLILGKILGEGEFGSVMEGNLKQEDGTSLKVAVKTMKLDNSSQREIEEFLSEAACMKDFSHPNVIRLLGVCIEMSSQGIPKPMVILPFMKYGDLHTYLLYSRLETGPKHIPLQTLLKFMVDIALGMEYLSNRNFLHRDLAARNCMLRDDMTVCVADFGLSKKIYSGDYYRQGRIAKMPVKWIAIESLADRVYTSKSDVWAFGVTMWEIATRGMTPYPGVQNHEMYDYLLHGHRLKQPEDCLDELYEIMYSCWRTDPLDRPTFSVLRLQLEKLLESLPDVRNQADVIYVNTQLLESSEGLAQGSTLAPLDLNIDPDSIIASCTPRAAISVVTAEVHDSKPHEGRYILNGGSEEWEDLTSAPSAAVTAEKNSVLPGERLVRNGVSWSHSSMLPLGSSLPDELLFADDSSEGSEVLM
Protocol: as §1, with “inhibit MER” for “inhibit TYRO3”, “(POC) was” for “(POC)”, “values are” for “values were”

GST-tagged recombinant human TYRO3 kinase domain, sequence (Q06418 518-790): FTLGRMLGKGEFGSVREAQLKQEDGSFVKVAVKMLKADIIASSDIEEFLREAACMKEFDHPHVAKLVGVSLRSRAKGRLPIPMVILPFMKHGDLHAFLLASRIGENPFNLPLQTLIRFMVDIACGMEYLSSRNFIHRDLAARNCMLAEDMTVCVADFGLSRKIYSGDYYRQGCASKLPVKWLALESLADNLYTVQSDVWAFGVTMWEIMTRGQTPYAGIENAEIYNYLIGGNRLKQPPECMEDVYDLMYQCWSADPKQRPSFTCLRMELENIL

| Compound | IC50 [1] [nM] | IC50 [2] [nM] |
| --- | --- | --- |
| CNc1cc2c(cn1)c(-c1cnn(C)c1)nn2[C@H]1CC[C@@H](Oc2nn(C)c(=O)c(C)c2C)CC1 [Example 8, 2,4,5-trimethyl-6-(((1s,4s)-4-(3-(1-methyl-1H-pyrazol-4-yl)-6-(methylamino)-1H-pyrazolo[4,3-c]pyridin-1-yl)cyclohexyl)oxy)pyridazin-3(2H)-one hydrochloride] | 1000 to 10000 |  |
| CNc1cc2c(cn1)c(-c1cnn(C)c1)nn2[C@H]1CC[C@@H](Oc2ccc(=O)n(CC(C)C)n2)CC1 [Example 16, 2-isobutyl-6-(((1s,4s)-4-(3-(1-methyl-1H-pyrazol-4-yl)-6-(methylamino)-1H-pyrazolo[4,3-c]pyridin-1-yl)cyclohexyl)oxy)pyridazin-3(2H)-one] | 1000 to 10000 |  |
| CNc1cc2c(cn1)c(-c1cnn(C)c1)nn2[C@H]1CC[C@@H](Oc2ccc(=O)n(CCN(C)C)n2)CC1 [Example 18, 2-(2-(dimethylamino)ethyl)-6-(((1s,4s)-4-(3-(1-methyl-1H-pyrazol-4-yl)-6-(methylamino)-1H-pyrazolo[4,3-c]pyridin-1-yl)cyclohexyl)oxy)pyridazin-3(2H)-one] | 1000 to 10000 |  |
| CNc1cc2c(cn1)c(-c1cnn(C)c1)nn2[C@H]1CC[C@@H](Oc2ccc(=O)n(Cc3ccc(OC)cc3)n2)CC1 [Example 20, 2-(4-methoxybenzyl)-6-(((1s,4s)-4-(3-(1-methyl-1H-pyrazol-4-yl)-6-(methylamino)-1H-pyrazolo[4,3-c]pyridin-1-yl)cyclohexyl)oxy)pyridazin-3(2H)-one] | 1000 to 10000 |  |
| CNc1cc2c(cn1)c(-c1cnn(C)c1)nn2[C@H]1CC[C@@H](Oc2ccc(=O)[nH]n2)CC1 [Example 21, 6-(((1s,4s)-4-(3-(1-methyl-1H-pyrazol-4-yl)-6-(methylamino)-1H-pyrazolo[4,3-c]pyridin-1-yl)cyclohexyl)oxy)pyridazin-3(2H)-one] | 1000 to 10000 |  |
| CCNc1cc2c(cn1)c(-c1cnn(C)c1)nn2[C@H]1CC[C@@H](Oc2ccc(C(=O)NC)cc2C(F)(F)F)CC1 [Example 392, 4-(((1s,4s)-4-(6-(ethylamino)-3-(1-methyl-1H-pyrazol-4-yl)-1H-pyrazolo[4,3-c]pyridin-1-yl)cyclohexyl)oxy)-N-methyl-3-(trifluoromethyl)benzamide] |  | < 10 |
| CCNc1cc2c(cn1)c(-c1ccn(C)c(=O)c1)nn2[C@H]1CC[C@@H](Oc2ccccc2F)CC1 [Example 398, 4-(6-(ethylamino)-1-((1s,4s)-4-(2-fluorophenoxy)cyclohexyl)-1H-pyrazolo[4,3-c]pyridin-3-yl)-1-methylpyridin-2(1H)-one] |  | < 10 |
| CCNc1cc2c(cn1)c(-c1cnn(C(CO)CO)c1)nn2[C@H]1CC[C@@H](Oc2ccccc2F)CC1 [Example 411, 2-(4-(6-(ethylamino)-1-((1s,4s)-4-(2-fluorophenoxy)cyclohexyl)-1H-pyrazolo[4,3-c]pyridin-3-yl)-1H-pyrazol-1-yl)propane-1,3-diol] |  | < 10 |
| CCNc1cc2c(cn1)c(-c1cnn(C(CO)CO)c1)nn2[C@H]1CC[C@@H](Oc2cccc(F)c2)CC1 [Example 412, 2-(4-(6-(ethylamino)-1-((1s,4s)-4-(3-fluorophenoxy)cyclohexyl)-1H-pyrazolo[4,3-c]pyridin-3-yl)-1H-pyrazol-1-yl)propane-1,3-diol] |  | < 10 |
| CCNc1cc2c(cn1)c(-c1cnn(C(CO)CO)c1)nn2[C@H]1CC[C@@H](Oc2cc(F)ccc2F)CC1 [Example 416, 2-(4-(1-((1s,4s)-4-(2,5-difluorophenoxy)cyclohexyl)-6-(ethylamino)-1H-pyrazolo[4,3-c]pyridin-3-yl)-1H-pyrazol-1-yl)propane-1,3-diol] |  | < 10 |
| CCNc1cc2c(cn1)c(-c1cnn(C(CO)CO)c1)nn2[C@H]1CC[C@@H](Oc2ccc(F)c(F)c2)CC1 [Example 418, 2-(4-(1-((1s,4s)-4-(3,4-difluorophenoxy)cyclohexyl)-6-(ethylamino)-1H-pyrazolo[4,3-c]pyridin-3-yl)-1H-pyrazol-1-yl)propane-1,3-diol] |  | < 10 |
| CCNc1cc2c(cn1)c(-c1cnn(C3CCS(=O)(=O)C3)c1)nn2[C@H]1CC[C@@H](Oc2ccccc2F)CC1 (stereo partly drawn) [Example 425, 3-(4-(6-(ethylamino)-1-((1s,4s)-4-(2-fluorophenoxy)cyclohexyl)-1H-pyrazolo[4,3-c]pyridin-3-yl)-1H-pyrazol-1-yl)tetrahydrothiophene 1,1-dioxide] |  | < 10 |
| CCNc1cc2c(cn1)c(-c1cnn(C[C@H](O)[C@H](C)O)c1)nn2[C@H]1CC[C@@H](Oc2ccccc2F)CC1 [Example 430, (2S,3S)-1-(4-(6-(ethylamino)-1-((1s,4R)-4-(2-fluorophenoxy)cyclohexyl)-1H-pyrazolo[4,3-c]pyridin-3-yl)-1H-pyrazol-1-yl)butane-2,3-diol] |  | < 10 |
| CCNc1cc2c(cn1)c(-c1cnn(C[C@@H](O)C(C)(C)O)c1)nn2[C@H]1CC[C@@H](Oc2cccc(Cl)c2)CC1 [Example 443, (R)-1-(4-(1-((1s,4S)-4-(3-chlorophenoxy)cyclohexyl)-6-(ethylamino)-1H-pyrazolo[4,3-c]pyridin-3-yl)-1H-pyrazol-1-yl)-3-methylbutane-2,3-diol] |  | < 10 |
| CCNc1cc2c(cn1)n(-c1ccc(CN3CCN(C)CC3)cc1)nc2[C@H]1CC[C@@H](Oc2ccccc2F)CC1 [Example 482, N-ethyl-3-((1s,4s)-4-(2-fluorophenoxy)cyclohexyl)-1-(4-((4-methylpiperazin-1-yl)methyl)phenyl)-1H-pyrazolo[3,4-c]pyridin-5-amine] |  | < 10 |

Continued, values first:

| IC50 [1] [nM] | IC50 [2] [nM] | Compound |
| --- | --- | --- |
| 1000 to 10000 |  | CNc1cc2c(cn1)c(-c1cnn(C)c1)nn2[C@H]1CC[C@@H](Oc2nn(C)c(=O)cc2C)CC1 [Example 6, 2,5-dimethyl-6-(((1s,4s)-4-(3-(1-methyl-1H-pyrazol-4-yl)-6-(methylamino)-1H-pyrazolo[4,3-c]pyridin-1-yl)cyclohexyl)oxy)pyridazin-3(2H)-one] |
| 1000 to 10000 |  | CCNc1cc2c(cn1)c(-c1cnn(C)c1)nn2[C@H]1CC[C@@H](Oc2ccc(=O)n(CCOC)n2)CC1 [Example 13, 6-(((1s,4s)-4-(6-(ethylamino)-3-(1-methyl-1H-pyrazol-4-yl)-1H-pyrazolo[4,3-c]pyridin-1-yl)cyclohexyl)oxy)-2-(2-methoxyethyl)pyridazin-3(2H)-one] |
| 1000 to 10000 |  | CCn1nc(O[C@H]2CC[C@@H](n3nc(-c4cnn(C)c4)c4cnc(NC)cc43)CC2)ccc1=O [Example 14, 2-ethyl-6-(((1s,4s)-4-(3-(1-methyl-1H-pyrazol-4-yl)-6-(methylamino)-1H-pyrazolo[4,3-c]pyridin-1-yl)cyclohexyl)oxy)pyridazin-3(2H)-one] |
| 1000 to 10000 |  | CNc1cc2c(cn1)c(-c1cnn(C)c1)nn2[C@H]1CC[C@@H](Oc2ccc(=O)n(CCOC)n2)CC1 [Example 17, 2-(2-methoxyethyl)-6-(((1s,4s)-4-(3-(1-methyl-1H-pyrazol-4-yl)-6-(methylamino)-1H-pyrazolo[4,3-c]pyridin-1-yl)cyclohexyl)oxy)pyridazin-3(2H)-one] |
| < 10 |  | CNc1cc2c(cn1)c(-c1cnn(C)c1)nn2[C@H]1CC[C@@H](Oc2ccn(C)c(=O)c2)CC1 [Example 24, 1-methyl-4-(((1s,4s)-4-(3-(1-methyl-1H-pyrazol-4-yl)-6-(methylamino)-1H-pyrazolo[4,3-c]pyridin-1-yl)cyclohexyl)oxy)pyridin-2(1H)-one] |
|  | < 10 | CNc1cc2c(cn1)c(-c1cnn(C)c1)nn2[C@H]1CC[C@@H](Oc2cccc(C)c2)CC1 [Example 366, N-methyl-3-(1-methyl-1H-pyrazol-4-yl)-1-((1s,4s)-4-(m-tolyloxy)cyclohexyl)-1H-pyrazolo[4,3-c]pyridin-6-amine] |
|  | < 10 | CCNc1cc2c(cn1)c(-c1cnn(C(C)(C)C#N)c1)nn2[C@H]1CC[C@@H](Oc2ccccc2F)CC1 [Example 400, 2-(4-(6-(ethylamino)-1-((1s,4s)-4-(2-fluorophenoxy)cyclohexyl)-1H-pyrazolo[4,3-c]pyridin-3-yl)-1H-pyrazol-1-yl)-2-methylpropanenitrile] |
|  | < 10 | CCNc1cc2c(cn1)c(-c1cn[nH]c1)nn2[C@H]1CC[C@@H](Oc2ccccc2F)CC1 [Example 401, N-ethyl-1-((1s,4s)-4-(2-fluorophenoxy)cyclohexyl)-3-(1H-pyrazol-4-yl)-1H-pyrazolo[4,3-c]pyridin-6-amine] |
|  | < 10 | CCNc1cc2c(cn1)c(-c1cnn(C(CO)CO)c1)nn2[C@H]1CC[C@@H](Oc2ccc(F)cc2)CC1 [Example 413] |
|  | < 10 | CCNc1cc2c(cn1)c(-c1cnn(C3CS(=O)(=O)C3)c1)nn2[C@H]1CC[C@@H](Oc2ccccc2F)CC1 [Example 426, 3-(4-(6-(ethylamino)-1-((1s,4s)-4-(2-fluorophenoxy)cyclohexyl)-1H-pyrazolo[4,3-c]pyridin-3-yl)-1H-pyrazol-1-yl)thietane 1,1-dioxide] |
|  | < 10 | CCNc1cc2c(cn1)c(-c1cnn(C[C@@H](O)CO)c1)nn2[C@H]1CC[C@@H](Oc2cccc(C)c2F)CC1 [Example 438, (R)-3-(4-(6-(ethylamino)-1-((1s,4S)-4-(2-fluoro-3-methylphenoxy)cyclohexyl)-1H-pyrazolo[4,3-c]pyridin-3-yl)-1H-pyrazol-1-yl)propane-1,2 diol] |
|  | < 10 | CCNc1cc2c(cn1)c(-c1cnn(C[C@H](O)C(C)(C)O)c1)nn2[C@H]1CC[C@@H](Oc2cccc(Cl)c2)CC1 [Example 441, (S)-1-(4-(1-((1s,4R)-4-(3-chlorophenoxy)cyclohexyl)-6-(ethylainino)-1H-pyrazolo[4,3-c]pyridin-3-yl)-1H-pyrazol-1-yl)-3-methylbutane-2,3-diol] |
